The values below come from the NIST ThermoML archive (doi:10.1016/j.jct.2013.12.008).

For the data set the following is noted: 101.33 kPa, Liquid; for viscosity: Capillary tube (Ostwald / Ubbelohde) method; for mass density: Pycnometric method.

Numbers after ± are expanded uncertainties.

One may read the viscosity as the internal friction of a fluid under shear. Usually mass density stands for mass per unit of volume. In the case of `COc1ccccc1` [anisole], the viscosity reads like this: (298.15 K) 0.989 ± 0.04 mPa·s; (308.15 K) 0.906 ± 0.037 mPa·s; (318.15 K) 0.84 ± 0.034 mPa·s. Moreover, the mass density was found to be 988.9 ± 0.8 kg/m3 (298.15 K), 979.5 ± 0.8 kg/m3 (308.15 K) and 970.5 ± 0.8 kg/m3 (318.15 K).

As to `CCOc1ccccc1` [ethoxybenzene], the viscosity by setting is: (298.15 K) 1.223 ± 0.05 mPa·s; (308.15 K) 0.982 ± 0.04 mPa·s; (318.15 K) 0.823 ± 0.034 mPa·s. Besides, the mass density is, setting by setting: (298.15 K) 960.2 ± 0.6 kg/m3; (308.15 K) 953.4 ± 0.8 kg/m3; (318.15 K) 942.5 ± 0.9 kg/m3.
